Data reported in patent publication US11618747B2, “LXR modulators with bicyclic core moiety” (OrsoBio, Inc., priority 2018, dated 2023).

Legend:
[1] = biological target: T1, LXRβ ligand-binding domain (Homo sapiens, UniProt P55055, DUP175-175); test: TR-FRETβ activity assay (NCoA3 coactivator peptide recruitment); format: biochemical; settings: TR-FRET, 1 μM 24(S)-25-epoxycholesterol prestimulation; read-out: FRETβ (EC50 range)
T1 construct: amino acids 156-461; NP009052; made in house; host or cells: E. coli
T1 sequence (P55055 with tags, fused parts or gaps DUP175-175 limits assumed): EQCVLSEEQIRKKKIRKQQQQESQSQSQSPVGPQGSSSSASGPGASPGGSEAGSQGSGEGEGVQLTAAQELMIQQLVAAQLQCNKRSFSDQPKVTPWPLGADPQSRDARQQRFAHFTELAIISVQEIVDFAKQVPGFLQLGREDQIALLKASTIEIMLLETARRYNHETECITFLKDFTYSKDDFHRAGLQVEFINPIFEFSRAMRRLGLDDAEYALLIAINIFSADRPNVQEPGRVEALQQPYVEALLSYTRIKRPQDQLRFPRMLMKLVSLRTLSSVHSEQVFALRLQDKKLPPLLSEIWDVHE
Outline: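 GST-tagged human LXRβ LBD (aa 156-461, E. coli) at 76 nM with 400 nM biotinylated NCoA3 peptide in Tris/HCl pH 6.8, 240 mM KCl, BSA, 0.002% Triton-X-100, plus 1 μM 24(S)-25-epoxycholesterol as prestimulating agonist. Compounds at 50 μM down to 0.002 μM, 1 h at 4 °C. Coactivator recruitment by TR-FRET (Tb cryptate/XL665, 615/665 nm), triplicates.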

[2] = biological target: T2, ligand-binding domain (LBD) of LXRα (Homo sapiens, UniProt Q13133); test: LXR Gal4 reporter transient transfection assay (LBD-M2H Gal4α); format: cell-based; settings: HEK293 cells, LXRα LBD; read-out: LBD-M2H Gal4α (EC50 range)
T2 construct: expressed in transfected cells; host or cells: HEK293
T2 sequence (Q13133 155-447): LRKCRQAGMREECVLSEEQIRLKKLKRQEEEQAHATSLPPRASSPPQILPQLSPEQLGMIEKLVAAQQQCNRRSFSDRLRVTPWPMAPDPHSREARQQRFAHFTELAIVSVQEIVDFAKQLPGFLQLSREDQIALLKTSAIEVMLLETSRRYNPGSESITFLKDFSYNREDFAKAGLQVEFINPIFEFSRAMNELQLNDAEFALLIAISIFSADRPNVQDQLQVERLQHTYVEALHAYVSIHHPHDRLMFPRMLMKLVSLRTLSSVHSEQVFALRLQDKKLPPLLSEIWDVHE
Method: (§1) The tested compounds were usually dissolved, tested and stored as 20 mM stock solutions in DMSO. Since sulfonyl acetic acid derivatives tend to decarboxylate under these conditions, these stock solutions were prepared, tested and stored as 20 mM DMSO stock solutions containing 100 mM trifluoroacetic Acid (5 equivalents). Sulfonyl acetic acid derivatives are shelf stable as solid at rt for long time as reported by Griesbrecht et al. (Synlett 2010:374) or Faucher et al. (J. Med. Chem. 2004; 47:18).
(§2) LXR Gal4 Reporter Transient Transfection Assays
(§3) LXRα and LXRβ activity status was determined via detection of interaction with coactivator and corepressor proteins in mammalian two-hybrid experiments (M2H). For this, via transient transfection the full length (FL) proteins of LXRα (amino acids 1-447; NP005684; SEQ ID NO:1) or LXRβ-(amino acids 1-461; NP009052; SEQ ID NO:2) or the ligand-binding domains (LBD) of LXRα (amino acids 155-447 SEQ ID NO:3) or LXRβ (amino acids 156-461; SEQ ID NO:4) were expressed from pCMV-AD (Stratagene) as fusions to the transcriptional activation domain of NFkB. As cofactors, domains of either the steroid receptor coactivator 1 (SRC1; amino acids 552-887; SEQ ID NO:5) or of the corepressor NCoR (amino acids 1906-2312; NP006302; SEQ ID NO:6) were expressed as fusions to the DNA binding domain of the yeast transcription factor GAL4 (from pCMV-BD; Stratagene). Interaction was monitored via activation of a coexpressed Firefly Luciferase Reporter gene under control of a promoter containing repetitive GAL4 response elements (vector pFRLuc; Stratagene). Transfection efficiency was controlled via cotransfection of constitutively active pRL-CMV Renila reniformis luciferase reporter (Promega). HEK293 cells were grown in minimum essential medium (MEM) with 2 mM L-glutamine and Earle's balanced salt solution supplemented with 8.3% fetal bovine serum, 0.1 mM non-essential amino acids, 1 mM sodium pyruvate, at 37° C. in 5% CO2. 3.5×10^4 cells/well were plated in 96-well cell culture plates in growth medium supplemented with 8.3% fetal bovine serum for 16-20 h to ˜90% confluency. For transfection, medium was taken off and LXR and cofactor expressing plasmids as well as the reporter plasmids are added in 30 μL OPTIMEM/well including polyethylene-imine (PEI) as vehicle. Typical amounts of plasmids transfected/well: pCMV-AD-LXR (5 ng), pCMV-BD-cofactor (5 ng), pFR-Luc (100 ng), pRL-CMV (0.5 ng). Compound stocks were prepared in DMSO, prediluted in MEM to a total volume of 120 μL, and added 4 h after addition of the transfection mixture (final vehicle concentration not exceeding 0.2%). Cells were incubated for additional 16 h, lysed for 10 min in 1× Passive Lysis Buffer (Promega) and Firefly and Renilla luciferase activities were measured sequentially in the same cell extract using buffers containing D-luciferine and coelenterazine, respectively. Measurements of luminescence were done in a BMG-luminometer.

[3] = biological target: T3, ligand-binding domain (LBD) of LXRβ (Homo sapiens, UniProt P55055, DUP175-175); test: LXR Gal4 reporter transient transfection assay (LBD-M2H Gal4β); format: cell-based; settings: HEK293 cells, LXRβ LBD; read-out: LBD-M2H Gal4β (EC50 range)
T3 construct: LXRβ (amino acids 156-461); expressed in transfected cells; host or cells: HEK293
T3 sequence (P55055 with tags, fused parts or gaps DUP175-175 limits assumed): T1 sequence (P55055 with tags, fused parts or gaps DUP175-175 limits assumed)
Method: as §1, §2, §3

[4] = Pharmacokinetics in mice after single oral dosing (blood/plasma and liver exposure); format: in vivo, mice (C57/bl6/J)
Method: The pharmacokinetics of the compounds was assessed in mice after single dosing and oral administrations. Blood/plasma and liver exposure was measured via LC-MS.
The study design was as follows:
Animals: C57/bl6/J (Janvier) males
Diet: standard rodent chow
Animal handling: animals were withdrawn from food at least 12 h before administration
Design: single dose oral administration, n=3 animals per group
Sacrifice: at stated time point (4, 12 or 24 h) after administration
Bioanalytics: LC-MS of liver and blood/plasma samples

SMILES	EC50 [1]	EC50 [2]	EC50 [3]	blood/plasma exposure (below LLOQ, LLOQ value not given) ([4]; 20 mg/kg single oral dose, time point 4 h)	oral bioavailability (in words) ([4]; oral administration)
COc1ccc(S(=O)(=O)n2c(-c3ccccc3)c(-c3ccc4ncccc4c3C#N)c3ccccc32)cc1 [20/20]	1000 to 10000 nM	1000 to 10000 nM	100 to 1000 nM	–	–
COc1ccc(S(=O)(=O)n2c(-c3ccccc3)c(-c3ccsc3C)c3ccccc32)cc1 [20/21]	1000 to 10000 nM	100 to 1000 nM	< 100 nM	–	–
COc1ccc(S(=O)(=O)n2c(-c3ccccc3)c(-c3ccsc3OC)c3ccccc32)cc1 [20/22]	100 to 1000 nM	100 to 1000 nM	100 to 1000 nM	–	–
COc1ccc(S(=O)(=O)n2c(-c3ccccc3)c(-c3cc(C)sc3C#N)c3ccccc32)cc1 [20/23]	1000 to 10000 nM	100 to 1000 nM	100 to 1000 nM	–	–
N#Cc1ccc(OCC(=O)O)cc1-c1c(-c2cccs2)n(S(=O)(=O)c2ccc(Cl)cc2)c2ccccc12 [21/1]	1000 to 10000 nM	1000 to 10000 nM	1000 to 10000 nM	–	–
N#Cc1c(OCC(=O)O)cccc1-c1c(-c2cccs2)n(S(=O)(=O)c2ccc(Cl)cc2)c2ccccc12 [21/2]	1000 to 10000 nM	1000 to 10000 nM	1000 to 10000 nM	–	–
N#Cc1sccc1-c1c(-c2ccc(F)cc2)n(S(=O)(=O)c2ccc(Cl)cc2)c2ccccc12 [26/1]	1000 to 10000 nM	100 to 1000 nM	< 100 nM	–	–
Cc1ccc(S(=O)(=O)n2c(-c3cccc(-c4cccc(C(=O)O)c4)c3)c(-c3ccsc3C#N)c3ccccc32)cc1 [30/1]	100 to 1000 nM	100 to 1000 nM	< 100 nM	–	–
Cc1ccc(S(=O)(=O)n2c(-c3cccc(-c4cccc(C(C)(C)C(=O)O)c4)c3)c(-c3ccsc3C#N)c3ccccc32)cc1 [30/2]	1000 to 10000 nM	100 to 1000 nM	100 to 1000 nM	–	–
N#Cc1sccc1-c1c(-c2cccc(CCCC(=O)O)c2)n(S(=O)(=O)c2ccc(Cl)cc2)c2ccccc12 [30/5]	1000 to 10000 nM	100 to 1000 nM	< 100 nM	–	–
N#Cc1sccc1-c1c(-c2cccc(N3CC(C(=O)O)C3)n2)n(S(=O)(=O)c2ccc(Cl)cc2)c2ccccc12 [30/6]	1000 to 10000 nM	100 to 1000 nM	100 to 1000 nM	–	–
N#Cc1sccc1-c1c(-c2ccc(C3CC3C(=O)O)s2)n(S(=O)(=O)c2ccc(Cl)cc2)c2ccccc12 (centres unmarked) [30/8]	1000 to 10000 nM	100 to 1000 nM	100 to 1000 nM	–	–
N#Cc1sccc1-c1c(-c2cc(Cl)cc(C3CC3C(=O)O)c2)n(S(=O)(=O)c2ccc(Cl)cc2)c2ccccc12 (centres unmarked) [30/9]	1000 to 10000 nM	100 to 1000 nM	< 100 nM	–	–
N#Cc1sccc1-c1c(-c2cccc(N3CCC(C(=O)O)C3)c2)n(S(=O)(=O)c2ccc(Cl)cc2)c2ccccc12 (centres unmarked) [30/11]	100 to 1000 nM	100 to 1000 nM	< 100 nM	–	–
N#Cc1sccc1-c1c(-c2cccc(C3CC3C(=O)O)c2)n(S(=O)(=O)C2CC2)c2ccccc12 (centres unmarked) [30/12]	1000 to 10000 nM	1000 to 10000 nM	100 to 1000 nM	–	–
Cc1ccc(S(=O)(=O)n2c(-c3cccc(C4CC4C(=O)O)c3)c(-c3ccsc3F)c3ccccc32)cc1 (centres unmarked) [30/14]	1000 to 10000 nM	100 to 1000 nM	100 to 1000 nM	–	–
Cc1ccc(S(=O)(=O)n2c(-c3cccc(C4CC4C(=O)O)c3)c(-c3ccc(F)cc3C#N)c3ccccc32)cc1 (centres unmarked) [30/15]	1000 to 10000 nM	100 to 1000 nM	100 to 1000 nM	–	–
CS(=O)(=O)NC(=O)C1CC1c1cccc(-c2c(-c3ccsc3C#N)c3ccccc3n2S(=O)(=O)c2ccc(Cl)cc2)c1 (centres unmarked) [32/1]	100 to 1000 nM	100 to 1000 nM	< 100 nM	–	–
NC(=O)c1sccc1-c1c(-c2cccs2)n(S(=O)(=O)c2ccc(Cl)cc2)c2ccccc12 [Example 22]	1000 to 10000 nM	100 to 1000 nM	100 to 1000 nM	–	–
N#Cc1sccc1-c1c(-c2cccs2)n(S(=O)(=O)C2CCCCC2)c2ccccc12 [Example 24, 3-(1-(Cyclohexylsulfonyl)-2-(thiophen-2-yl)-1H-indol-3-yl)thiophene-2-carbonitrile]	1000 to 10000 nM	100 to 1000 nM	< 100 nM	–	–
N#Cc1sccc1-c1c(-c2ccccc2)n(S(=O)(=O)c2ccc(Cl)cc2)c2ccccc12 [Example 26, 3-(1-((4-Chlorophenyl)sulfonyl)-2-phenyl-1H-indol-3-yl)thiophene-2-carbonitrile]	100 to 1000 nM	< 100 nM	< 100 nM	–	–
N#Cc1sccc1-c1c(-c2cccc(OCCC(=O)O)n2)n(S(=O)(=O)c2ccc(Cl)cc2)c2ccccc12 [Example 31, 3-((6-(1-((4-Chlorophenyl)sulfonyl)-3-(2-cyanothiophen-3-yl)-1H-indol-2-yl)pyridin-2-yl)oxy)propanoic Acid]	1000 to 10000 nM	100 to 1000 nM	100 to 1000 nM	–	–
CCOC(=O)c1ccc(CN(Cc2ccc(-c3cccc(S(C)(=O)=O)c3)cc2)S(=O)(=O)c2c(C)cc(C)cc2C)o1 [SR9238, reference compound]	–	–	–	LLOQ	not orally bioavailable
